From patent US20150086490A1, “ORAL CARE COMPOSITIONS AND METHODS” (Colgate-Palmolive Company, priority 2009, published 2015)

Test system: MMP-13 gene expression
Assay: PTH stimulated MMP-13 gene expression in UMR 106-01 cells, real time quantitative RT-PCR
Assay type: cell-based, rat
Conditions: for effect on PTH stimulated MMP-13 gene expression (in words): summary of the table's results
Description: Parathyroid hormone (PTH) stimulates the transcription of MMP-13. The experimental method utilizes PTH to stimulate MMP-13 transcription in UMR 106-01 cells, which are cells derived from a rat osteoblastic cell line. The UMR 106-01 cell line provides useful model system for studying effects of PTH on osteoblasts in vitro. See, e.g., Qin, L. et al. Journal of Biological Chemistry, 278(22), 19723 (2003).
The UMR 106-01 cells were cultured in Eagle's minimal essential medium (EMEM) supplemented with 25 mM Hepes 7.4, 1% nonessential amino acids, 100 units/ml penicillin, 100 μg/ml streptomycin and 5% fetal bovine serum.
UMR 106-01 cells were seeded in 12-well plates and cultured for 2-3 days in cell culture media. When cells were confluent, the cell culture media was changed to 1% fetal bovine serum (not 5% fetal bovine sertn) for overnight cell starvation. The cells were preincubated with active ingredient for 15 min and then incubated with PTH (10^−8 M) for 4 hours.
Total RNA from UMR 106-01 cells stimulated with or without PTH was isolated with TRIzol reagent. Total RNA (0.1 μg) was reverse-transcribed to cDNA with the Invitrogen Superscript kit according to the manufacturer's instructions. PCR was performed on cDNA using primers, and the sequences used are listed below. All were amplified by adding 2.5 μl of cDNA to the PCR mixture (22.5 μl) containing each primer (0.2 μM) and 12.5 μl of the Platinum SYBR Green qPCR SuperMix UDG (Invitrogen). The reactions were pre-incubated at 50° C. for 2 minutes for decontamination of dU-containing DNA by UDG, then at 95° C. for 2 minutes to inactivate UDG and activate Taq. The PCR program continued for 49 cycles of denaturation at 95° C. for 15 seconds, annealing and elongation of the primers at 60° C. for 30 seconds. Relative quantification of gene expression was determined by using the 2-delta delta CT method where fold changes in gene expression are relative to control samples. All samples were normalized to β-actin.

[1] = PTH (10^−8 M, 4 hours) + active 10 ppm (15 min preincubation)
[2] = active alone (no PTH), 10 ppm in simple solution

CC(=O)O[C@@H]1CC[C@@]2(C)[C@@H](CC[C@]3(C)[C@@H]2C(=O)C=C2[C@@H]4[C@@H](C)[C@H](C)CC[C@]4(C)CC[C@]23C)[C@@]1(C)C(=O)O [AKBBA, Acetyl keto β-boswellic acid]
fold change in MMP-13 gene expression relative to the control sample, Average [1]: 59.77 fold
fold change in MMP-13 gene expression relative to the control sample, Average [2]: 1.45 fold
effect on PTH stimulated MMP-13 gene expression (in words): decreases the expression

CC1CCC(C(C)C)C(OC(=O)Nc2ccccc2O)C1 (centres unmarked) [Compound A, 2-isopropyl-5-methylcyclohexyl 2-hydroxyphenylcarbantate]
fold change in MMP-13 gene expression relative to the control sample, Average (PTH (10^−8 M, 4 hours) + active 7 ppm (15 min preincubation)): 14.674 fold
fold change in MMP-13 gene expression relative to the control sample, Average (active alone (no PTH), 7 ppm in simple solution): 7.41 fold
effect on PTH stimulated MMP-13 gene expression (in words): decreases the expression

CC(=O)Nc1ccc(OC(=O)OC2CC(C)CCC2C(C)C)cc1 (centres unmarked) [Compound B, 4-acetamidophenyl 2-isopropyl-5-methylcyclohexyl carbonate]
fold change in MMP-13 gene expression relative to the control sample, Average [1]: 49.86 fold
fold change in MMP-13 gene expression relative to the control sample, Average [2]: 5.78 fold
effect on PTH stimulated MMP-13 gene expression (in words): decreases the expression

Oc1ccc(C=Cc2cc(O)cc(O)c2)cc1 [Resveratrol, 3,5,4′-trihydroxystilbene]
fold change in MMP-13 gene expression relative to the control sample, Average (PTH (10^−8 M, 4 hours) + active 0.1 ppm (15 min preincubation)): 46.02 fold
fold change in MMP-13 gene expression relative to the control sample, Average (PTH (10^−8 M, 4 hours) + active 1 ppm (15 min preincubation)): 19.97 fold
fold change in MMP-13 gene expression relative to the control sample, Average [1]: 1.86 fold
fold change in MMP-13 gene expression relative to the control sample, Average (PTH (10^−8 M, 4 hours) + active 50 ppm (15 min preincubation)): 0.91 fold
fold change in MMP-13 gene expression relative to the control sample, Average (PTH (10^−8 M, 4 hours) + active 100 ppm (15 min preincubation)): 0.65 fold
fold change in MMP-13 gene expression relative to the control sample, Average (active alone (no PTH), 0.1 ppm in simple solution): 1.07 fold
fold change in MMP-13 gene expression relative to the control sample, Average (active alone (no PTH), 1 ppm in simple solution): 0.71 fold
fold change in MMP-13 gene expression relative to the control sample, Average [2]: 0.65 fold
fold change in MMP-13 gene expression relative to the control sample, Average (active alone (no PTH), 50 ppm in simple solution): 0.38 fold
fold change in MMP-13 gene expression relative to the control sample, Average (active alone (no PTH), 100 ppm in simple solution): 1.09 fold
effect on PTH stimulated MMP-13 gene expression (in words): decreases the expression
